For three molecules, Kd results are on record in article PMC7324522, “Targeting a critical step in fungal hexosamine biosynthesis” (The Journal of Biological Chemistry, 2020).

Molecules are shown by their SMILES.

Test [1] addresses T1, AfGna1 (Aspergillus fumigatus, UniProt Q4WCU5).
T1 construct: gene AFUA_6G02460; GST fusion (pGEX6P-1) from E. coli BL21(DE3) pLysS, GST tag cleaved with PreScission; obligate homodimer; 164-165 residues modelled; biotinylated for BLI
T1 sequence (Q4WCU5 1-190): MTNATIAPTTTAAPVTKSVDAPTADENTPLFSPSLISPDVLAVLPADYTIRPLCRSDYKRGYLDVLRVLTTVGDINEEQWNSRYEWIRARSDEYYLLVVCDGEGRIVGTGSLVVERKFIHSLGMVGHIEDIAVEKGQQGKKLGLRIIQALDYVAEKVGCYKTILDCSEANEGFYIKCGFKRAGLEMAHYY
Nature of the test: bio-layer interferometry, biotinylated protein on SSA biosensors. Format: binding.

Test [2] concerns the target T1, AfGna1. Nature of the test: bio-layer interferometry, confirmed by isothermal titration calorimetry. Format: binding. The note with it: read-out: equilibrium dissociation constant. Background: In BLI a coated tip is dipped into the sample, and binding shifts an interference pattern.

Turning to `OCCN(CCO)c1cc(Cl)c(-c2nc[nH]n2)c(Cl)c1` [compound 3, 2,2′-((3,5-dichloro-4-(1,2,4-triazol-3-yl)phenyl)azanediyl)bis(ethan-1-ol)], the Kd at AfGna1 [1] was found to be 5 µM.

`Nc1cccc(-c2nc[nH]n2)c1Cl` [compound 2, 2-chloro-3-(1,2,4-triazol-3-yl)aniline] yielded a Kd on AfGna1 [1] of 0.8 µM.

Take `Clc1ccccc1-c1nnc[nH]1` [compound 1, fragment hit 1]: at AfGna1 [2], the Kd was found to be 6 µM.
